Source: patent US8173684B2, “Pyridone derivatives as p38α MAPK inhibitors” (Astellas Pharma Inc., priority 2007, dated 2012)

Each compound was assayed on TNF-α production in THP-1 cells (assay: Test 1: Inhibition of TNF-α production in THP-1 cells). Details: Homo sapiens; 100 nM test compound; LPS (10 μg/mL) stimulated THP-1 cells, 20 hr; TNF-α in supernatant vs 0.1% DMSO control.
Format: cell-based
Description: Test 1: Inhibition of TNF-α Production in THP-1 Cells
THP-1 cells, a human monocytic cell line, were maintained in RPMI 1640 (Sigma R8758) supplemented with penicillin (50 U/mL), streptomycin (50 μg/mL) and 10% fetal bovine serum (Moregate BioTech.) at 37° C., 5% CO2 in a humidified incubator. Initial stock solutions of test compounds were made in DMSO. All cells, reagents and test compounds were diluted into culture media. THP-1 cells (1×10^5 cells/well final) and lipopolysaccharide (LPS; 10 μg/mL final; Sigma L-4005, from E. coli serotype 0.55:B5) were added to 96 well polypropylene culture plates (Sumilon, MS-8196F5; sterile) containing test compound or 0.1% DMSO vehicle. The cell mixture was incubated for 20 hr in a humidified incubator at 37° C., 5% CO2. The culture supernatants were harvested and TNF-α levels from LPS stimulated cells in the presence of 100 nM test compound was calculated compared with control cells stimulated in the presence of 0.1% DMSO.

| Compound | inhibition at 0.1 µM |
| --- | --- |
| Cn1nccc1NC(=O)c1ccc(Cl)c(NC(=O)c2ccc(=O)n(-c3c(Cl)cccc3Cl)c2)c1 [Example 6, N-{2-Chloro-5-[(1-methyl-1H-pyrazol-5-ylamino)carbonyl]phenyl}-1-(2,6-dichlorophenyl)-6-oxo-1,6-dihydro-3-pyridinecarboxamide] | 82% |
| Cc1ccc(C(=O)NC2CC2)cc1NC(=O)c1ccc(=O)n(C(C)(C)C)c1 [Example 20, N-{5-[(cyclopropylamino)carbonyl]-2-methylphenyl}-1-tert-butyl-6-oxo-1,6-dihydro-3-pyridinecarboxamide] | 85% |
| O=C(Nc1cc(C(=O)NC2CC2)ccc1Cl)c1ccc(=O)n(-c2cccc(F)c2F)c1 [Example 17, N-{2-Chloro-5-[(cyclopropylamino)carbonyl]phenyl}-1-(2,3-difluorophenyl)-6-oxo-1,6-dihydro-3-pyridinecarboxamide] | 75% |
| Cc1ccc(NC(=O)C2CC2)cc1NC(=O)c1ccc(=O)n(-c2c(Cl)cccc2Cl)c1 [Example 25, N-{5-[(cyclopropylcarbonyl)amino]-2-methylphenyl}-1-(2,6-dichlorophenyl)-6-oxo-1,6-dihydro-3-pyridinecarboxamide] | 70% |
| Cc1ccc(C(=O)NC2CC2)cc1NC(=O)c1ccc(=O)n(-c2c(F)cccc2F)c1 [Example 22, N-{5-[(Cyclopropylamino)carbonyl]-2-methylphenyl}-1-(2,6-difluorophenyl)-6-oxo-1,6-dihydro-3-pyridinecarboxamide] | 97% |
| O=C(Nc1cc(C(=O)NC2CC2)ccc1Br)c1ccc(=O)n(-c2c(F)cccc2F)c1 [Example 15, N-{2-Bromo-5-[(cyclopropylamino)carbonyl]phenyl}-1-(2,6-difluorophenyl)-6-oxo-1,6-dihydro-3-pyridinecarboxamide] | 69% |
| O=C(Nc1cc(C(=O)NC2CC2)ccc1Cl)c1ccc(=O)n(-c2c(Cl)cccc2Cl)c1 [Example 1, N-{2-chloro-5-[(cyclopropylamino)carbonyl]phenyl}-1-(2,6-dichlorophenyl)-6-oxo-1,6-dihydro-3-pyridinecarboxamide] | 77% |
| Cc1ccc(C(=O)NC2CC2)cc1NC(=O)c1ccc(=O)n(-c2c(Cl)cccc2Cl)c1 [Example 18, N-{5-[(cyclopropylamino)carbonyl]-2-methylphenyl}-1-(2,6-dichlorophenyl)-6-oxo-1,6-dihydro-3-pyridinecarboxamide] | 78% |
| Cc1ccc(-n2nc(C(C)(C)C)cc2NC(=O)Nc2ccc(C)c(NC(=O)c3ccc(=O)n(-c4c(Cl)cccc4Cl)c3)c2)cc1 [Example 26, N-[5-[({[3-tert-butyl-1-(4-methylphenyl)-1H-pyrazol-5-yl]amino]carbonyl)amino]-2-methylphenyl}-1-(2,6-dichlorophenyl)-6-oxo-1,6-dihydro-3-pyridinecarboxamide] | 68% |
| O=C(Nc1ccon1)c1ccc(Cl)c(NC(=O)c2ccc(=O)n(-c3c(Cl)cccc3Cl)c2)c1 [Example 3, N-{2-Chloro-5-[(isoxazol-3-ylamino)carbonyl]phenyl}-1-(2,6-dichlorophenyl)-6-oxo-1,6-dihydro-3-pyridinecarboxamide] | 94% |
| O=C(Nc1cc(C(=O)NC2CC2)ccc1Cl)c1ccc(=O)n(-c2c(F)cccc2Cl)c1 [Example 16, N-{2-Chloro-5-[(cyclopropylamino)carbonyl]phenyl}-1-(2-chloro-6-fluorophenyl)-6-oxo-1,6-dihydro-3-pyridinecarboxamide] | 72% |
| Cc1ccc(C(=O)NC2CC2)cc1NC(=O)c1ccc(=O)n(C(C)c2ccccc2)c1 (centres unmarked) [Example 24, N-{5-[(Cyclopropylamino)carbonyl]-2-methylphenyl}-1-(1-phenylethyl)-6-oxo-1,6-dihydro-3-pyridinecarboxamide] | 83% |
| Cn1ccc(NC(=O)c2ccc(Cl)c(NC(=O)c3ccc(=O)n(-c4c(Cl)cccc4Cl)c3)c2)n1 [Example 5, N-{2-Chloro-5-[(1-methyl-1H-pyrazol-3-ylamino)carbonyl]phenyl}-1-(2,6-dichlorophenyl)-6-oxo-1,6-dihydro-3-pyridinecarboxamide] | 75% |
| CONC(=O)c1ccc(Cl)c(NC(=O)c2ccc(=O)n(-c3c(Cl)cccc3Cl)c2)c1 [Example 2, N-{2-Chloro-5-[(methoxyamino)carbonyl]phenyl}-1-(2,6-dichlorophenyl)-6-oxo-1,6-dihydro-3-pyridinecarboxamide] | 84% |
